# Laboratory results taken from patent US20200163984A1, “USE OF ISOVALERYL SPIRAMYCIN I, II AND/OR III IN MANUFACTURING MEDICAMENT FOR TREATING AND/OR PREVENTING TUMOR, AND MEDICAMENT” (SHENYANG FUYANG PHARMACEUTICAL TECHNOLOGY CO., LTD., priority 2017, published 2020).
# Key:
# [1] = system: transplanted tumor of human non-small cell lung cancer cell A549; assay: A549 transplanted tumor in nude mice; conditions: for Tumor Volume (mm3) (d 1): d1
# Procedure: A549 cells in a logarithmic growth phase were taken and subjected to a trypan blue exclusion experiment showing that the cell viability was more than 95%, then the cells were subjected to trypsinization, centrifugation, and supernatant removal. Then cell concentration was adjusted to 1×10^7/ml with matrigel, then each nude mouse was inoculated subcutaneously with 0.2 ml of cells at its right armpit and recorded as the first day of inoculation. When the tumor grows to be greater than or equal to 100 mm^3, the mice were randomly divided into 11 groups with 6 mice in each group: a model group, a cyclophosphamide group, isovaleryl spiramycin I groups with doses of 25, 50 and 100 mg/kg, isovaleryl spiramycin II groups with doses of 25, 50 and 100 mg/kg, and isovaleryl spiramycin III groups with doses of 25, 50 and 100 mg/kg. Each group was continuously administered intragastrically for 30 days with a dose of 20 ml/kg. The mice were sacrificed the next day after drug withdrawal and the indicators were tested. The long diameter and short diameter of the tumor, and the body weight of each mouse were recorded every 3 days from drug administration to nude mouse sacrifice.
# The body weight of the nude mice and the long diameter (a) and short diameter (b) of the transplanted tumor were measured every 3 days, and the tumor volume (v), relative tumor volume (RTV) and relative tumor proliferation rate (T/C) are calculated respectively according to the following formulas, wherein V=a×b^2/2; RTV=V/V0 (V0 is the tumor volume before administration, V is the tumor volume before sacrifice), and T/C (%)=treatment group RTV/model control group RTV×100%.
# Each mouse was weighed and sacrificed. After the tumor was completely stripped off from the body of the mouse, the non-tumor tissues such as blood stains and fat were removed to weigh the tumor and calculate the tumor growth inhibition rate. The average tumor weight of each group of mice is used as an indicator of efficacy. Tumor growth inhibition rate (%)=(1−the average tumor weight of the treatment group/the average tumor weight of the model group)×100%.
# [2] = system: transplanted tumor of mouse Lewis lung cancer; assay: Transplanted tumor of mouse Lewis lung cancer; conditions: for Tumor Volume (mm3) (d 1) / Tumor Volume (mm3) (d30) / Relative Tumor Proliferation Rate (T/C) / Relative Tumor Volume (RTV): title prints KM mouse H22 cells; for Tumor Volume (mm3) (d30): d 30; for Body Weight (g) (d1) / Body Weight (g) (d 15): mouse, in vivo
# Procedure: Lewis lung cancer cells were cultured in a RPMI 1640 culture medium containing 10% fetal bovine serum at 37° C. in a 5% CO2 incubator. The cells in the logarithmic growth phase were subjected to trypsinization with 0.25% trypsin, then the cells were collected to be centrifugated to remove the obtained supernatant, then were washed twice with sterile normal saline. […] The Lewis cells were adjusted to 1×10^7/mL in concentration and stored in ice water. 75% ethanol was used to disinfect the skin under the right armpits of the mice, and each C57BL/6 mouse was soon inoculated subcutaneously with 0.2 ml of the cells at its right armpit.
# In the Lewis lung cancer model, the mice inoculated with the tumor were randomly divided into groups with 10 mice in each group the next day of inoculation. The groups included: a model control group, a positive drug cyclophosphamide control group (CTX, 30 mg/kg), isovaleryl spiramycin I groups with doses of 13, 26 and 52 mg/kg; isovaleryl spiramycin II groups with doses of 13, 26 and 52 mg/kg; isovaleryl spiramycin III groups with doses of 13, 26 and 52 mg/kg. Each group was continuously administered intragastrically for 15 days with a dose of 20 ml/kg.
# The tumor-bearing mice were weighed and sacrificed the next day after the last administration. The subcutaneous tumors were dissected and weighed. The average tumor weight of each group is calculated, and the tumor inhibition rate is calculated.
# Tumor inhibition rate=(1−T/C)×100%
# T: average tumor weight of the drug-administered group; C: average tumor weight of the blank control group.
# [3] = Spleen index of A549 lung cancer tumor-bearing mice; conditions: n = 6
# [4] = A549, high dose (100 mg/kg in method) i.g. 30 days
# [5] = A549, low dose (25 mg/kg in method) i.g. 30 days
# [6] = A549, medium dose (50 mg/kg in method) i.g. 30 days
compound,measurement,setting,value
"COC1C(OC(C)=O)CC(=O)OC(C)CC=CC=CC(OC2CCC(N(C)C)C(C)O2)C(C)CC(CC=O)C1OC1OC(C)C(OC2CC(C)(O)C(OC(=O)CC(C)C)C(C)O2)C(N(C)C)C1O (stereo not drawn) [Isovaleryl spiramycin II, isovaleryl spiramycin II]",Relative Tumor Proliferation Rate (T/C),[1]; [4],39.42%
same,tumor growth inhibition rate,[1]; [4],60.19%
same,Relative Tumor Proliferation Rate (T/C),[1]; [5],83.41%
same,tumor growth inhibition rate,[1]; [5],20.73%
same,tumor volume and relative tumor volume compared with the model group,"[1]; A549, low, medium and high doses, P<0.05",significantly lower
same,Relative Tumor Proliferation Rate (T/C),[1]; [6],58.75%
same,tumor growth inhibition rate,[1]; [6],31.87%
same,Inhibition Rate (%),"[1]; A549 nude mice, 25 mg/kg",20.73%
same,Relative Tumor Proliferation Rate (T/C),"[1]; A549 nude mice, 25 mg/kg",83.41%
same,Relative Tumor Volume (RTV),"[1]; A549 nude mice, 25 mg/kg",13.54 ± 1.07
same,Tumor Weight,"[1]; A549 nude mice, 25 mg/kg",1.90 ± 0.31 g
same,Tumor Volume (mm3) (d 1),"[1]; A549 nude mice, 25 mg/kg",119.67 ± 7.25 mm3
same,Tumor Volume (mm3) (d30),"[1]; A549 nude mice, 25 mg/kg",1614.91 ± 65.26 mm3
same,Inhibition Rate (%),"[1]; A549 nude mice, 50 mg/kg",31.87%
same,Relative Tumor Proliferation Rate (T/C),"[1]; A549 nude mice, 50 mg/kg",58.75%
same,Relative Tumor Volume (RTV),"[1]; A549 nude mice, 50 mg/kg",9.54 ± 2.62
same,Tumor Weight,"[1]; A549 nude mice, 50 mg/kg",1.63 ± 0.32 g
same,Tumor Volume (mm3) (d 1),"[1]; A549 nude mice, 50 mg/kg",117.96 ± 4.88 mm3
same,Tumor Volume (mm3) (d30),"[1]; A549 nude mice, 50 mg/kg",1129.10 ± 326.54 mm3
same,Inhibition Rate (%),"[1]; A549 nude mice, 100 mg/kg",60.19%
same,Relative Tumor Proliferation Rate (T/C),"[1]; A549 nude mice, 100 mg/kg",47.94%
same,Relative Tumor Volume (RTV),"[1]; A549 nude mice, 100 mg/kg",7.78 ± 2.03
same,Tumor Weight,"[1]; A549 nude mice, 100 mg/kg",0.95 ± 0.42 g
same,Tumor Volume (mm3) (d 1),"[1]; A549 nude mice, 100 mg/kg",116.96 ± 6.56 mm3
same,Tumor Volume (mm3) (d30),"[1]; A549 nude mice, 100 mg/kg",917.10 ± 270.86 mm3
same,mouse weight compared with the model group,"[1]; mouse, in vivo",no significant changes
same,Body Weight (g) (d1),"[1]; mouse, in vivo, 25 mg/kg",20.91 ± 1.07 g
same,Body Weight (g) (d30),"[1]; mouse, in vivo, 25 mg/kg",21.32 ± 1.88 g
same,Body Weight (g) (d1),"[1]; mouse, in vivo, 50 mg/kg",20.03 ± 1.88 g
same,Body Weight (g) (d30),"[1]; mouse, in vivo, 50 mg/kg",12.92 ± 1.68 g
same,Body Weight (g) (d1),"[1]; mouse, in vivo, 100 mg/kg",21.71 ± 1.94 g
same,Body Weight (g) (d30),"[1]; mouse, in vivo, 100 mg/kg",12.42 ± 1.37 g
same,growth of Lewis lung cancer in mice,"[2]; 13, 26 and 52 mg/kg i.g. 15 days",significantly inhibit
same,Tumor Volume (mm3) (d 1),[2]; dose 12.5 mg/kg,104.18 ± 19.49 mm3
same,Tumor Volume (mm3) (d30),[2]; dose 12.5 mg/kg,1304.48 ± 379.51 mm3
same,Relative Tumor Proliferation Rate (T/C),[2]; dose 12.5 mg/kg,80.51
same,Relative Tumor Volume (RTV),[2]; dose 12.5 mg/kg,12.89 ± 4.69
same,Inhibition Rate (%),[2]; dose 13 mg/kg,38.67%
same,Tumor Weight,[2]; dose 13 mg/kg,0.98 ± 0.37 g
same,Tumor Volume (mm3) (d 1),[2]; dose 25 mg/kg,103.63 ± 19.46 mm3
same,Tumor Volume (mm3) (d30),[2]; dose 25 mg/kg,1119.26 ± 338.67 mm3
same,Relative Tumor Proliferation Rate (T/C),[2]; dose 25 mg/kg,68.97
same,Relative Tumor Volume (RTV),[2]; dose 25 mg/kg,11.04 ± 4.07
same,Inhibition Rate (%),[2]; dose 26 mg/kg,44.26%
same,Tumor Weight,[2]; dose 26 mg/kg,0.89 ± 0.18 g
same,Tumor Volume (mm3) (d 1),[2]; dose 50 mg/kg,103.38 ± 18.03 mm3
same,Tumor Volume (mm3) (d30),[2]; dose 50 mg/kg,798.42 ± 189.19 mm3
same,Relative Tumor Proliferation Rate (T/C),[2]; dose 50 mg/kg,48.76
same,Relative Tumor Volume (RTV),[2]; dose 50 mg/kg,7.81 ± 1.76
same,Inhibition Rate (%),[2]; dose 52 mg/kg,56.34%
same,Tumor Weight,[2]; dose 52 mg/kg,0.70 ± 0.21 g
same,Body Weight (g) (d1),[2]; 13 mg/kg,20.33 ± 0.64 g
same,Body Weight (g) (d 15),[2]; 13 mg/kg,22.17 ± 1.74 g
same,Body Weight (g) (d1),[2]; 26 mg/kg,19.62 ± 1.43 g
same,Body Weight (g) (d 15),[2]; 26 mg/kg,22.38 ± 0.96 g
same,Body Weight (g) (d1),[2]; 52 mg/kg,20.05 ± 0.67 g
same,Body Weight (g) (d 15),[2]; 52 mg/kg,22.75 ± 0.95 g
same,Spleen Index (%),[3]; dose 13 mg/kg,0.35 ± 0.06%
same,Spleen Index (%),[3]; dose 26 mg/kg,0.32 ± 0.09%
same,Spleen Index (%),[3]; dose 52 mg/kg,0.37 ± 0.06%
